From patent EP1228063B1, “SUBSTITUTED PYRIDINES AND PYRIDAZINES WITH ANGIOGENESIS INHIBITING ACTIVITY” (BAYER CORPORATION, priority 1999, dated 2001)

What was measured:
[1] = target: T1, NIH3T3 cells expressing the full length KDR receptor (Homo sapiens, UniProt P35968); assay: Cell mechanistic assay - Inhibition of 3T3 KDR phosphorylation; assay type: cell-based; conditions: VEGF (30 ng / ml) stimulated KDR phosphorylation in NIH3T3 cells, 30 minutes preincubation
T1 construct: NIH3T3 cells expressing the full length KDR receptor; expressed in transfected cells; host or cells: NIH3T3 cells (G418 selection)
T1 sequence (P35968 20-1356): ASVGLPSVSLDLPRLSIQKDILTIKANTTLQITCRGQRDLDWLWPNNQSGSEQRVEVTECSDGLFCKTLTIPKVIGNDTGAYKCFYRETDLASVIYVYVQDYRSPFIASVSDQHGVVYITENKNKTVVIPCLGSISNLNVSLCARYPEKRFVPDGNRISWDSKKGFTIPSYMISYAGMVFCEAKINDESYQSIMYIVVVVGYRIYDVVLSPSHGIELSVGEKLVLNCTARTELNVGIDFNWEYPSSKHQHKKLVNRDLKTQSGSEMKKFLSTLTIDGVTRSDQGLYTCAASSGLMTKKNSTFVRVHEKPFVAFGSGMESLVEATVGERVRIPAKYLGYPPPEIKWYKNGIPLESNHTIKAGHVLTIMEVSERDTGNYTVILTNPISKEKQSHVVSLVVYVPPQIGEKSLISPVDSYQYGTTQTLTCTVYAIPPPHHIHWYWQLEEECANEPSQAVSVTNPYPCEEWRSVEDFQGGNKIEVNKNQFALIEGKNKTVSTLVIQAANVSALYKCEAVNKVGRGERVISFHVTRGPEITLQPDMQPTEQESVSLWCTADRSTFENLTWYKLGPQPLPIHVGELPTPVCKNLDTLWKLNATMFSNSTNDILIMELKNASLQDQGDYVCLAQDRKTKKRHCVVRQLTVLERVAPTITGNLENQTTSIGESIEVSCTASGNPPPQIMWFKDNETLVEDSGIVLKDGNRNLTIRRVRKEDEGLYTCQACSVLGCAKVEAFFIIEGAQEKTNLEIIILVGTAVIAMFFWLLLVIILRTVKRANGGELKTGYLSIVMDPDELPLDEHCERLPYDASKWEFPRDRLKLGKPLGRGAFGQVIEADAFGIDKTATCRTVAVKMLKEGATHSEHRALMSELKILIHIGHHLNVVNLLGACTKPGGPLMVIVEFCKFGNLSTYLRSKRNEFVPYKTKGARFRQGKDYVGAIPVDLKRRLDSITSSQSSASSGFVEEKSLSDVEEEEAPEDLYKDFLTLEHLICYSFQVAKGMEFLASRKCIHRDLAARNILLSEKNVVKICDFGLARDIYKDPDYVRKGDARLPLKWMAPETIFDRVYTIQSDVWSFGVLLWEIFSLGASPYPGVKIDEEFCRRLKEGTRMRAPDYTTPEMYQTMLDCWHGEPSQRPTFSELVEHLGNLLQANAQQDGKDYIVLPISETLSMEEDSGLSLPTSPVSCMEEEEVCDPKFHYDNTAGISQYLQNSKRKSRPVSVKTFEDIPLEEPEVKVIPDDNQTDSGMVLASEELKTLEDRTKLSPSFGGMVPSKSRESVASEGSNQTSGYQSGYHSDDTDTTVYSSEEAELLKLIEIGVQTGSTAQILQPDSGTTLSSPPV
Method: NIH3T3 cells expressing the full length KDR receptor were grown in DMEM (Life Technologies, Inc., Grand Island, NY) supplemented with 10% newborn calf serum, low glucose, 25 mM /L sodium pyruvate, pyridoxine hydrochloride and 0.2 mg/ ml of G418 (Life Technologies Inc., Grand Island, NY). The cells were maintained in collagen I-coated T75 flasks (Becton Dickinson Labware, Bedford, MA) in a humidified 5% CO2 atmosphere at 37°C.
Fifteen thousand cells were plated into each well of a collagen 1-coated 96-well plate in the DMEM growth medium. Six hours later, the cells were washed and the medium was replaced with DMEM without serum. After overnight culture to quiesce the cells, the medium was replaced by Dulbecco's phosphate-buffered saline (Life Technologies Inc., Grand Island, NY) with 0.1 % bovine albumin (Sigma Chemical Co., St Louis, MO). After adding various concentrations (0-300 nM) of test compounds to the cells in 1% final concentration of DMSO, the cells were incubated at room temperature for 30 minutes. The cells were then treated with VEGF (30 ng / ml) for 10 minutes at room temperature. Following VEGF stimulation, the buffer was removed and the cells were lysed by addition of 150 µl of extraction buffer (50 mM Tris, pH 7.8, supplemented with 10% glycerol, 50 mM BGP, 2 mM EDTA, 10 mM NaF, 0.5 mM NaVO4, and 0.3% TX-100) at 4°C for 30 minutes.
To assess receptor phosphorylation, 100 microliters of each cell lysate was added to the wells of an ELISA plate precoated with 300 ng of antibody C20 (Santa Cruz Biotechnology, Inc., Santa Cruz , CA). Following a 60-minute incubation, the plate was washed and bound KDR was probed for phosphotyrosine using an anti-phosphotyrosine mAb clone 4G10 (Upstate Biotechnology, Lake Placid, NY). The plate was washed and wells were incubated with anti-mouse IgG/HRP conjugate (Amersham International plc, Buckinghamshire, England) for 60 minutes. Wells were washed and phosphotyrosine was quantitated by addition of 100 µl per well of 3,3',5,5' tetramethylbenzidine (Kirkegaard and Perry, TMB Microwell 1 Component peroxidase substrate) solution. Color development was arrested by the addition of 100 µl 1% HCl based stop solution (Kirkegaard and Perry, TMB 1 Component Stop Solution).
Optical densities (OD) were determined spectrophotometrically at 450 nm in a 96-well plate reader (SpectraMax 250, Molecular Devices). Background (no VEGF added) OD values were subtracted from all ODs and percent inhibition was calculated according to the equation: % Inhibition = ((OD(VEGF control)-OD(with test compound)) × 100)/(OD(VEGF control)-OD(no VEGF added)) [formula]
IC50s were determined on some of the exemplary materials with a least squares analysis program using compound concentration versus percent inhibition. Compounds that have IC50 ≤ 20 nM in this assay include those of Examples 2, 6, 10, 11, 14, 23, 96, 101, 102, 103, 104, 105. Compounds that have IC50 values between 20 nM and 50 nM include those of examples 1, 4, 8, 9, 12, 13, 17, 24, 93, 98. Compounds that have IC50 values between 50 nM and 400 nM include those of examples 97, 99, and 100.

KDR kinase domain = target: T2, KDR kinase domain (Homo sapiens, UniProt P35968); assay: KDR Assay (ELISA of poly(Glu4;Tyr1) phosphorylation); assay type: biochemical; conditions: 3.3 µM ATP, 60 minutes at room temperature
T2 construct: The cytosolic kinase domain of KDR kinase was expressed as a 6His fusion protein in Sf9 insect cells; 6His; made in house; host or cells: Sf9 insect cells
T2 sequence (P35968 834-1162 limits assumed): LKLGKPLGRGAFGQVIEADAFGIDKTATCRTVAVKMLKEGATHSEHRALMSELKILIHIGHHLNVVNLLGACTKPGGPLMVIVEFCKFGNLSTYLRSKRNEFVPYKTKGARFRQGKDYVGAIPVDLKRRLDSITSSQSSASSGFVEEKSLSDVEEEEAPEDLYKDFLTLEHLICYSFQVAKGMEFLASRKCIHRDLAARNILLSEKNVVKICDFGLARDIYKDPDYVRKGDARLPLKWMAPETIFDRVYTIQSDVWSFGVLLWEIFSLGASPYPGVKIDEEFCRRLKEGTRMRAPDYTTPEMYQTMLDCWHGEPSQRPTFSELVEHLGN
Method: The cytosolic kinase domain of KDR kinase was expressed as a 6His fusion protein in Sf9 insect cells. The KDR kinase domain fusion protein was purified over a Ni++ chelating column. Ninety-six well ELISA plates were coated with 5 µg poly(Glu4;Tyr1) (Sigma Chemical Co., St Louis, MO) in 100 µl HEPES buffer (20 mM HEPES, pH 7.5, 150 mM NaCl, 0.02% Thimerosal) at 4° overnight. Before use, the plate was washed with HEPES, NaCl buffer and the plates were blocked with 1% BSA, 0.1% Tween 20 in HEPES, NaCl buffer.
Test compounds were serially diluted in 100% DMSO from 4 mM to 0.12 µM in half-log dilutions. These dilutions were further diluted twenty fold in H2O to obtain compound solutions in 5% DMSO. Following loading of the assay plate with 85 µl of assay buffer (20 mM HEPES, pH 7.5, 100 mM KCI, 10 mM MgCl2, 3 mM MnCl2, 0.05% glycerol, 0.005% Triton X-100, 1 mM -mercaptoethanol, with or without 3.3 µM ATP), 5 µl of the diluted compounds were added to a final assay volume of 100 µl. Final concentrations were between 10 µM, and 0.3 nM in 0.25% DMSO. The assay was initiated by the addition of 10µl (30 ng) of KDR kinase domain.
The assay was incubated with test compound or vehicle alone with gentle agitation at room temperature for 60 minutes. The wells were washed and phosphotyrosines (PY) were probed with an anti-phosphotyrosine (PY), mAb clone 4G10 (Upstate Biotechnology, Lake Placid, NY). PY/anti-PY complexes were detected with an anti-mouse IgG/HRP conjugate (Amersham International plc, Buckinghamshire, England). Phosphotyrosine was quantitated by incubating with 100 µl 3, 3', 5, 5' tetramethylbenzidine solution (Kirkegaard and Perry, TMB Microwell 1 Component peroxidase substrate). Color development was arrested by the addition of 100 µl 1% HCl-based stop solution (Kirkegaard and Perry, TMB I Component Stop Solution).
Optical densities were determined spectrophotometrically at 450 nm in a 96-well plate reader, SpectraMax 250 (Molecular Devices). Background (no ATP in assay) OD values were subtracted from all ODs and the percent inhibition was calculated according to the equation: % Inhibition = ((OD(vehicle control)-OD(with compound)) × 100)/(OD(vehicle control)-OD(no ATP added)) [formula]

| Compound | IC50 [1] [nM] | IC50 (KDR kinase domain) [nM] |
| --- | --- | --- |
| Clc1ccc(Nc2ncc(Sc3ccncc3)c3ccccc23)cc1 [Example 1, 1-(4-chlorophenylamino)-4-(4-pyridylthio)isoquinolinc] | 20 to 50 |  |
| c1ccc2c(Nc3ccc4ncsc4c3)ncc(Sc3ccncc3)c2c1 [Example 3, 1-(benzothiazol-6-ylamino)-4-(4-pyridylthio)isoquinolin] |  | 100 to 1000 |
| Clc1ccc(Nc2ncc(Cc3ccncc3)c3ccccc23)cc1 [Example 4, 1-(4-chlorophenylamino)-4-(4-pyridylmethyl)isoquinoline] | 20 to 50 |  |
| c1ccc2c(Nc3ccc4ncsc4c3)ncc(Cc3ccncc3)c2c1 [Example 5, 1-(benzothiazol-6-ylamino)-4-(4-pyridylmethyl)-isoquinoline] |  | 100 to 1000 |
| NC(=O)c1cc(Cc2cnc(Nc3ccc(Cl)cc3)c3ccccc23)ccn1 [Example 12, 1-(4-chlorophenylamino)-4-(2-aminocarbonyl-4-pyridylmethyl)isoquinolin] | 20 to 50 |  |
| CNC(=O)c1cc(Cc2cnc(Nc3ccc(Cl)cc3)c3ccccc23)ccn1 [Example 13, 1-(4-chlorophenylamino)-4-(2-methylaminocarbonyl-4-pyridylmethyl)isoquinoline] | 20 to 50 |  |
| Clc1ccc(Nc2nnc(Nc3ccc4ncsc4c3)c3sccc23)cc1 [Example 17, 4-(4-chlorophenylamino)-7-(benzothiazol-6-ylamino)thieno[2,3-d]pyridazine] | 20 to 50 |  |
| c1nc2ccc(Nc3nnc(Nc4ccc5c(c4)CCC5)c4ccsc34)cc2s1 [Example 18, 4-(indan-5-ylamino)-7-(benzothiazol-6-ylamino)thieno-[2,3-d]pyridazine] |  | ≤ 100 |
| COc1ccc(Nc2nnc(OCc3ccncc3)c3occc23)cc1 [Example 21, 4-(4-methoxyphenylamino)-7-(4-pyridylmethoxy)furo-[2,3-d]pyridazine] |  | 100 to 1000 |
| c1cc2c(Nc3ccc4[nH]ncc4c3)nnc(Nc3ccc4[nH]ncc4c3)c2s1 [Example 27] |  | 100 to 1000 |
| c1cc2c(Nc3ccc4ncsc4c3)nnc(Nc3ccc4ncsc4c3)c2o1 [Example 28] |  | 100 to 1000 |
| CNC(=O)c1cc(COc2nnc(Nc3cccc(Cl)c3)c3ccoc23)ccn1 [Example 35] |  | 100 to 1000 |
| CNC(=O)c1cc(COc2nnc(Nc3ccc(F)c(Cl)c3)c3ccoc23)ccn1 [Example 36] |  | 100 to 1000 |
| CNC(=O)c1cc(COc2nnc(Nc3ccc(N(C)C(C)=O)cc3)c3ccoc23)ccn1 [Example 45] |  | 100 to 1000 |
| CNC(=O)c1cc(COc2nnc(Nc3ccc(N4CCOCC4)cc3)c3ccoc23)ccn1 [Example 46] |  | 100 to 1000 |
| Clc1ccc(Nc2nnc(Nc3ccc4ncsc4c3)c3occc23)cc1 [Example 48] |  | 100 to 1000 |

| Compound | IC50 [1] [nM] | IC50 (KDR kinase domain) [nM] |
| --- | --- | --- |
| CNC(=O)c1cc(COc2nnc(Nc3ccccc3OC)c3ccoc23)ccn1 [Example 50] |  | 100 to 1000 |
| CNC(=O)c1cc(COc2nnc(Nc3ccc4[nH]ncc4c3)c3ccoc23)ccn1 [Example 55] |  | 100 to 1000 |
| Oc1ccc(Nc2nnc(OCc3ccncc3)c3occc23)cc1 [Example 58] |  | 100 to 1000 |
| O=C(c1cc(COc2nnc(Nc3ccc(Cl)cc3)c3ccoc23)ccn1)N1CCOCC1 [Example 61] |  | 100 to 1000 |
| OCc1cc(COc2nnc(Nc3ccc(Cl)cc3)c3ccoc23)ccn1 [Example 64] |  | 100 to 1000 |
| CNC(=O)c1cc(COc2nnc(Nc3ccc(F)cc3)c3ccsc23)ccn1 [Example 67] |  | 100 to 1000 |
| Cc1ccc(Nc2nnc(Nc3ccc4ncsc4c3)c3sccc23)cc1F [Example 79] |  | 100 to 1000 |
| CN(C)CCNC(=O)c1cc(COc2nnc(Nc3ccc(Cl)cc3)c3ccoc23)ccn1 [Example 82A] |  | 100 to 1000 |
| c1ccc2c(Nc3ccc4ncsc4c3)nnc(Nc3ccc4ncsc4c3)c2c1 [Example 93] | 20 to 50 | ≤ 100 |
| Clc1ccc(Nc2nnc(Nc3ccc4nc[nH]c4c3)c3ccccc23)cc1 [Example 95] |  | 100 to 1000 |
| Brc1ccc2c(c1)CCN2c1nnc(Nc2ccc3ncsc3c2)c2ccccc12 [Example 97] | 50 to 400 |  |
| FC1(F)Oc2ccc(Nc3nnc(Nc4ccc5ncsc5c4)c4ccccc34)cc2O1 [Example 98] | 20 to 50 |  |
| c1ccc2c(Nc3ccc4ncsc4c3)nnc(Nc3ccc(N4CCCCC4)cc3)c2c1 [Example 99] | 50 to 400 | 100 to 1000 |
| CCN(c1ccc(Nc2nnc(Nc3ccc4ncsc4c3)c3ccccc23)cc1)C(C)C [Example 100] | 50 to 400 | 100 to 1000 |
| Cc1ccc(Nc2nnc(Nc3ccc4ncsc4c3)c3ccccc23)cc1F [Example 104] | ≤ 20 | ≤ 100 |
